According to ChEMBL document CHEMBL1136309, “Synthesis and SAR studies of potent HIV protease inhibitors containing novel dimethylphenoxyl acetates as P2 ligands” (Bioorg Med Chem Lett, 2003):

Legend:
[1] = test system: Human immunodeficiency virus 1; experiment: Antiviral activity was tested in presence of 50% human serum in MT-4 cells (in vitro); format: functional, organism-based; settings: Human immunodeficiency virus 1, MT4
[2] = target: Human immunodeficiency virus type 1 protease (Human immunodeficiency virus 1) (UniProt Q72874); experiment: Inhibitory activity against HIV protease at a compound concentration of 0.5 nM in MT-4 cells; format: cell-based; settings: MT4
[3] = test system: Human immunodeficiency virus 1; experiment: Antiviral activity was tested in absence of human serum in MT-4 cells (in vitro); format: functional, organism-based; settings: Human immunodeficiency virus 1, MT4
[4] = target: Human immunodeficiency virus type 1 protease (Human immunodeficiency virus 1) (UniProt Q72874); experiment: Inhibitory activity against HIV protease at a compound concentration of 1 nM in MT-4 cells; format: cell-based; settings: MT4
[5] = target: Human immunodeficiency virus type 1 protease (Human immunodeficiency virus 1) (UniProt Q72874); experiment: Inhibitory activity against HIV protease at a compound concentration of 12 nM in MT-4 cells; format: cell-based; settings: MT4
[6] = target: Human immunodeficiency virus type 1 protease (Human immunodeficiency virus 1) (UniProt Q72874); experiment: Inhibitory activity against HIV protease at a compound concentration of 2.4 nM in MT-4 cells; format: cell-based; settings: MT4
[7] = target: Human immunodeficiency virus type 1 protease (Human immunodeficiency virus 1) (UniProt Q72874); experiment: Inhibitory activity against HIV protease at a compound concentration of 31 nM in MT-4 cells; format: cell-based; settings: MT4

SMILES	EC50 [1] [nM]	inhibition [2] [%]	EC50 [3] [nM]	inhibition [4] [%]	inhibition [5] [%]	inhibition [6] [%]	inhibition [7] [%]
Cc1cc(N)cc(C)c1SCC(=O)N[C@@H](Cc1ccccc1)C[C@H](O)[C@H](Cc1ccccc1)NC(=O)O[C@H]1COC2OCCC21 (stereo not given in full)	1040	–	5790	56	–	–	–
Cc1cc(C(=O)N(C)C)cc(C)c1OCC(=O)N[C@@H](Cc1ccccc1)C[C@H](O)[C@H](Cc1ccccc1)NC(=O)O[C@H]1COC2OCCC21 (stereo not given in full)	11900	–	2310	–	–	–	–
Cc1cc(N2COCC2=O)cc(C)c1OCC(=O)N[C@@H](Cc1ccccc1)C[C@H](O)[C@H](Cc1ccccc1)NC(=O)O[C@H]1COC2OCCC21 (stereo not given in full)	930	74	214	–	–	–	–
Cc1cc([N+](=O)[O-])cc(C)c1OCC(=O)N[C@@H](Cc1ccccc1)C[C@H](O)[C@H](Cc1ccccc1)NC(=O)OC1COC2OCCC12 (stereo not given in full)	8110	53	927	–	–	–	–
Cc1cc(N)cc(C)c1S(=O)(=O)CC(=O)N[C@@H](Cc1ccccc1)C[C@H](O)[C@H](Cc1ccccc1)NC(=O)O[C@H]1COC2OCCC21 (stereo not given in full)	61800	–	10300	–	50	–	–
Cc1cccc(C)c1N(C)CC(=O)N[C@@H](Cc1ccccc1)C[C@H](O)[C@H](Cc1ccccc1)NC(=O)O[C@H]1COC2OCCC21 (stereo not given in full)	30200	–	2910	–	–	50	–
Cc1cc(N)cc(C)c1[S+]([O-])CC(=O)N[C@@H](Cc1ccccc1)C[C@H](O)[C@H](Cc1ccccc1)NC(=O)O[C@H]1COC2OCCC21 (stereo not given in full)	98400	–	37500	–	–	–	50
Cc1cc(F)cc(C)c1OCC(=O)N[C@@H](Cc1ccccc1)C[C@H](O)[C@H](Cc1ccccc1)NC(=O)O[C@H]1COC2OCCC21 (stereo not given in full)	866	69	268	–	–	–	–
Cc1cc(Cl)c(N)c(C)c1OCC(=O)N[C@@H](Cc1ccccc1)C[C@H](O)[C@H](Cc1ccccc1)NC(=O)O[C@H]1COC2OCCC21 (stereo not given in full)	659	86	62	–	–	–	–
Cc1cccc(C)c1NCC(=O)N[C@@H](Cc1ccccc1)C[C@H](O)[C@H](Cc1ccccc1)NC(=O)O[C@H]1COC2OCCC21 (stereo not given in full)	2150	69	253	–	–	–	–
Cc1ccccc1OCC(=O)N[C@@H](Cc1ccccc1)C[C@H](O)[C@H](Cc1ccccc1)NC(=O)O[C@H]1COC2OCCC21 (stereo not given in full)	–	84	–	–	–	–	–
Cc1cc(NS(C)(=O)=O)cc(C)c1OCC(=O)N[C@@H](Cc1ccccc1)[C@@H](O)C[C@H](Cc1ccccc1)NC(=O)O[C@H]1COC2OCCC21 (stereo not given in full)	–	–	–	–	50	–	–
Cc1cc2[nH]c(O)nc2c(C)c1OCC(=O)N[C@@H](Cc1ccccc1)C[C@H](O)[C@H](Cc1ccccc1)NC(=O)O[C@H]1COC2OCCC21 (stereo not given in full)	3110	85	972	–	–	–	–
O=C(COc1ccccc1)N[C@@H](Cc1ccccc1)C[C@H](O)[C@H](Cc1ccccc1)NC(=O)O[C@H]1COC2OCCC21 (stereo not given in full)	–	61	–	–	–	–	–
COc1cccc(C)c1OCC(=O)N[C@@H](Cc1ccccc1)C[C@H](O)[C@H](Cc1ccccc1)NC(=O)O[C@H]1COC2OCCC21 (stereo not given in full)	1380	74	353	–	–	–	–
Cc1cc(N)c(N)c(C)c1OCC(=O)N[C@@H](Cc1ccccc1)C[C@H](O)[C@H](Cc1ccccc1)NC(=O)O[C@H]1COC2OCCC21 (stereo not given in full)	1480	76	644	–	–	–	–
Cc1cc2nsnc2c(C)c1OCC(=O)N[C@@H](Cc1ccccc1)C[C@H](O)[C@H](Cc1ccccc1)NC(=O)O[C@H]1COC2OCCC21 (stereo not given in full)	5650	71	621	–	–	–	–
Cc1cc2[nH]nnc2c(C)c1OCC(=O)N[C@@H](Cc1ccccc1)C[C@H](O)[C@H](Cc1ccccc1)NC(=O)O[C@H]1COC2OCCC21 (stereo not given in full)	1880	67	188	–	–	–	–
Cc1cc(C(N)=O)cc(C)c1OCC(=O)N[C@@H](Cc1ccccc1)C[C@H](O)[C@H](Cc1ccccc1)NC(=O)O[C@H]1COC2OCCC21 (stereo not given in full)	987	–	255	–	–	–	–
CCOC(=O)c1cc(C)c(OCC(=O)N[C@@H](Cc2ccccc2)C[C@H](O)[C@H](Cc2ccccc2)NC(=O)O[C@H]2COC3OCCC32)c(C)c1 (stereo not given in full)	3220	84	106	–	–	–	–
Cc1cc(N(C)C)cc(C)c1OCC(=O)N[C@@H](Cc1ccccc1)C[C@H](O)[C@H](Cc1ccccc1)NC(=O)O[C@H]1COC2OCCC21 (stereo not given in full)	2070	43	160	–	–	–	–
CNC(=O)c1cc(C)c(OCC(=O)N[C@@H](Cc2ccccc2)C[C@H](O)[C@H](Cc2ccccc2)NC(=O)O[C@H]2COC3OCCC32)c(C)c1 (stereo not given in full)	533	–	220	–	–	–	–
Cc1ncnc(C)c1OCC(=O)N[C@@H](Cc1ccccc1)C[C@H](O)[C@H](Cc1ccccc1)NC(=O)O[C@H]1COC2OCCC21 (stereo not given in full)	1390	56	815	–	–	–	–

More lines, in order of falling EC50 [1], values ahead:

EC50 [1] [nM]	inhibition [2] [%]	EC50 [3] [nM]	inhibition [4] [%]	inhibition [5] [%]	inhibition [6] [%]	inhibition [7] [%]	SMILES
507	64	112	–	–	–	–	CNc1cc(C)c(OCC(=O)N[C@@H](Cc2ccccc2)C[C@H](O)[C@H](Cc2ccccc2)NC(=O)OC2COC3OCCC23)c(C)c1 (stereo not given in full)
501	61	160	–	–	–	–	Cc1cc2oc(O)nc2c(C)c1OCC(=O)N[C@@H](Cc1ccccc1)C[C@H](O)[C@H](Cc1ccccc1)NC(=O)O[C@H]1COC2OCCC21 (stereo not given in full)
479	82	205	–	–	–	–	Cc1cc(C)c(OCC(=O)N[C@@H](Cc2ccccc2)C[C@H](O)[C@H](Cc2ccccc2)NC(=O)O[C@H]2COC3OCCC32)c(C)c1 (stereo not given in full)
438	49	184	–	–	–	–	Cc1ccnc(C)c1OCC(=O)N[C@@H](Cc1ccccc1)C[C@H](O)[C@H](Cc1ccccc1)NC(=O)O[C@H]1COC2OCCC21 (stereo not given in full)
340	77	24	–	–	–	–	Cc1cc(OCCN2CCOCC2)cc(C)c1OCC(=O)N[C@@H](Cc1ccccc1)C[C@H](O)[C@H](Cc1ccccc1)NC(=O)O[C@H]1COC2OCCC21 (stereo not given in full)
300	87	41	–	–	–	–	Cc1cccc(C)c1OCC(=O)N[C@@H](Cc1ccccc1)C[C@H](O)[C@H](Cc1ccccc1)NC(=O)O[C@H]1COC2OCCC21 (stereo not given in full)
272	91	61	–	–	–	–	Cc1cccc(C)c1OCC(=O)N[C@@H](Cc1ccccc1)[C@@H](O)C[C@H](Cc1ccccc1)NC(=O)OC1COC2OCCC12 (stereo not given in full)
197	88	37	–	–	–	–	Cc1cccc(CO)c1OCC(=O)N[C@@H](Cc1ccccc1)C[C@H](O)[C@H](Cc1ccccc1)NC(=O)O[C@H]1COC2OCCC21 (stereo not given in full)
129	60	47	–	–	–	–	Cc1cc(N)cc(C)c1OCC(=O)N[C@@H](Cc1ccccc1)C[C@H](O)[C@H](Cc1ccccc1)NC(=O)O[C@@H]1COC2OCCC21 (stereo not given in full)
117	74	23	–	–	–	–	Cc1cc(C)c(OCC(=O)N[C@@H](Cc2ccccc2)C[C@H](O)[C@H](Cc2ccccc2)NC(=O)O[C@H]2COC3OCCC32)c(C)c1N (stereo not given in full)
98	92	7	–	–	–	–	Cc1ccc(O)c(C)c1OCC(=O)N[C@@H](Cc1ccccc1)C[C@H](O)[C@H](Cc1ccccc1)NC(=O)O[C@H]1COC2OCCC21 (stereo not given in full)
76	82	32	–	–	–	–	Cc1cc(O)cc(C)c1OCC(=O)N[C@@H](Cc1ccccc1)C[C@H](O)[C@H](Cc1ccccc1)NC(=O)O[C@H]1COC2OCCC21 (stereo not given in full)
67	70	12	–	–	–	–	Cc1cc(N)cc(C)c1OCC(=O)N[C@@H](Cc1ccccc1)C[C@H](O)[C@H](Cc1ccccc1)NC(=O)OC1COC2OCCC12 (stereo not given in full)
35	87	5	–	–	–	–	Cc1ccc(N)c(C)c1OCC(=O)N[C@@H](Cc1ccccc1)C[C@H](O)[C@H](Cc1ccccc1)NC(=O)O[C@H]1COC2OCCC21 (stereo not given in full)
31	78	9	–	–	–	–	Cc1cc(N)cc(C)c1OCC(=O)N[C@@H](Cc1ccccc1)C[C@H](O)[C@H](Cc1ccccc1)NC(=O)O[C@H]1COC2OCCC21 (stereo not given in full)
